Data on 28 compounds can be found in patent US20170283440A1, “CARM1 INHIBITORS AND USES THEREOF” (Epizyme, Inc., priority 2014, published 2017).

Where two headings read alike, the source gives them in different places. Where only a bound is given, the exact number is not on record here.

One experiment has as its target T1, Human CARM1 (PRMT4) (Homo sapiens, UniProt Q86X55).
T1 construct: Flag-CARM1-His was eluted with 200 ug/ml FLAG peptide in buffer A; made in house; host or cells: HEK 293F cells infected with recombinant baculovirus (pFastBacMam)
Description: CARM1 enzyme assay on peptide substrate (3H-SAM Flashplate). The class given is biochemical. The conditions noted are these: CARM1 0.25 nM, 3H-SAM 30 nM, peptide 250 nM; read-out: Biochem IC50. The source says: S-adenosylmethionine (SAM), S-adenosylhomocysteine (SAH), bicine, Tween20, dimethylsulfoxide (DMSO), bovine skin gelatin (BSG), sodium butyrate and Tris(2-carboxyethyl)phosphine hydrochloride solution (TCEP) were purchased from Sigma-Aldrich at the highest level of purity possible. ^3H-SAM was purchase from American Radiolabeled Chemicals with a specific activity of 80 Ci/mmol. 384-well streptavidin Flashplates were purchased from PerkinElmer.
Peptide representative of human histone H3 residues 16-30 was synthesized with an N-terminal linker-affinity tag motif and a C-terminal amide cap by 21st Century Biochemicals. The peptide was purified by high-performance liquid chromatography (HPLC) to greater than 95% purity and confirmed by liquid chromatography mass spectrometry (LC-MS). The sequence was Biot-Ahx-[…]-amide and contained a monomethylated arginine at position 26 (SEQ ID NO.:1).
Human CARM1 (PRMT4) (NM_199141.1) transcript clone was amplified from an HEK 293 cDNA library, incorporating a flanking 5′ sequence encoding a FLAG tag ([…]) (SEQ ID NO.:2) fused directly to Ala 2 of CARM1 and 3′ sequence encoding a hexa His sequence ([…]) (SEQ ID NO.:3) fused directly to Ser 608. The gene sequence encoding isoform1 containing a deletion of amino acids 539-561 was amplified subsequently and subcloned into pFastBacMam (Viva Biotech).
Recombinant baculovirus were generated according to Bac-to-Bac kit instructions (Life Technologies). Protein over-expression was accomplished by infecting exponentially growing HEK 293F cell culture at 1.3×10^6 cell/ml with virus (MOI=10) in the presence of 8 mM sodium butyrate. Infections were carried out at 37° C. for 48 hours, harvested by centrifugation, and stored at −80° C. for purification.
Column was washed with 500 mM NaCl in buffer A and Flag-CARM1-His was eluted with 200 ug/ml FLAG peptide in buffer A. Pooled fractions were dialyzed in 20 mM Tris, 150 mM NaCl, 5% glycerol and 1 mM DTT, pH 7.8. The purity of recovered protein was 94.
The assays were all performed in a buffer consisting of 20 mM Bicine (pH=7.6), 1 mM TCEP, 0.005% BSG, and 0.002% Tween 20, prepared on the day of use. Compounds in 100% DMSO (1 ul) were spotted into a polypropylene 384-well V-bottom plates (Greiner) using a Platemate Plus outfitted with a 384-channel head (Thermo Scientific). DMSO (1 ul) was added to Columns 11, 12, 23, 24, rows A-H for the maximum signal control and 1 ul of SAH, a known product and inhibitor of CARM1, was added to columns 11, 12, 23, 24, rows I—P for the minimum signal control. A cocktail (40 ul) containing the CARM1 enzyme was added by Multidrop Combi (Thermo-Fisher). The compounds were allowed to incubate with CARM1 for 30 min at room temperature, then a cocktail (10 ul) containing ^3H-SAM and peptide was added to initiate the reaction (final volume=51 ul). The final concentrations of the components were as follows: CARM1 was 0.25 nM, ^3H-SAM was 30 nM, peptide was 250 nM, SAH in the minimum signal control wells was 1 mM, and the DMSO concentration was 2%. The assays were stopped by the addition of non-radiolabeled SAM (10 ul) to a final concentration of 300 uM, which dilutes the ^3H-SAM to a level where its incorporation into the peptide substrate is no longer detectable. 50 ul of the reaction in the 384-well polypropylene plate was then transferred to a 384-well Flashplate and the biotinylated peptides were allowed to bind to the streptavidin surface for at least 1 hour before being washed once with 0.1% Tween20 in a Biotek ELx405 plate washer. The plates were then read in a PerkinElmer TopCount plate reader to measure the quantity of ^3H-labeled peptide bound to the Flashplate surface, measured as disintegrations per minute (dpm) or alternatively, referred to as counts per minute (cpm).
where dpm=disintegrations per minute, cmpd=signal in assay well, and min and max are the respective minimum and maximum signal controls. […]

Experiment [1] relates to asymmetric di-methyl PABP1 in RKO cells. Description: RKO methylation assay (In Cell Western for asymmetric di-methyl PABP1). Type of experiment: cell-based. The settings on record: 48 hours incubation, read-out: Cellular IC50. The source says: RKO adherent cells were purchased from ATCC (American Type Culture Collection), Manassas, Va., USA. DMEM/Glutamax medium, penicillin-streptomycin, heat inactivated fetal bovine serum, 0.05% trypsin and D-PBS were purchased from Life Technologies, Grand Island, N.Y., USA. Odyssey blocking buffer, 800CW goat anti-rabbit IgG (H+L) antibody, and Licor Odyssey infrared scanner were purchased from Licor Biosciences, Lincoln, Nebr., USA. Asymmetric di-methyl PABP1 antibody was purchased from Cell Signaling Technology, Danvers, Mass., USA. Methanol was purchased from VWR, Franklin, Mass., USA. 10% Tween 20 was purchased from KPL, Inc., Gaithersburg, Md., USA. Paraformaldehyde (PFA) was purchased from EM Sciences. DRAQ5 was purchased from Biostatus Limited, Leicestershire, UK.
RKO adherent cells were maintained in growth medium (DMEM/Glutamax medium supplemented with 10% v/v heat inactivated fetal bovine serum and 100 units/mL penicillin-streptomycin) and cultured at 37° C. under 5% CO2.
Compound (100 nL) from a 96-well source plate was added directly to 384 well cell plate. Plates were incubated at 37° C., 5% CO2 for 48 hours. After two days of incubation, plates were brought to room temperature outside of the incubator for ten minutes and blotted on paper towels to remove cell media. Cells were fixed for 20 minutes at room temperature by adding 50 ul of 8% PFA followed by aspiration of supernatant with the Biotek EL406 plate washer. Cells were then permeabilized by addition of 50 μL of ice cold 100% methanol directly to each well and incubated for 30 min at room temperature. After 30 min, plates were transferred to a Biotek EL406 plate washer and washed 2 times with 100 μL per well of wash buffer (IX PBS). Next 60 μL per well of Odyssey blocking buffer (Odyssey Buffer with 0.1% Tween 20 (v/v)) were added to each plate and incubated 1 hour at room temperature. Blocking buffer was removed and 20 μL per well of primary antibody was added (asymmetric-methyl PABP1) diluted 1:400 in Odyssey buffer with 0.1% Tween 20 (v/v)) and plates were incubated overnight (16 hours) at 4° C. Plates were washed 5 times with 100 μL per well of wash buffer. Next 20 μL per well of secondary antibody was added (1:800 800CW goat anti-rabbit IgG (H+L) antibody, 1:2000 DRAQ5 in Odyssey buffer with 0.1% Tween 20 (v/v)) and incubated for 1 hour at room temperature. The plates were washed 5 times with 100 μL per well wash buffer then 2 times with 100 μL per well of water. Plates were allowed to dry at room temperature then imaged on the Licor Odyssey machine which measures integrated intensity at 700 nm and 800 nm wavelengths. Both 700 and 800 channels were scanned.
First, the ratio for each well was determined by:
Each plate included fourteen control wells of DMSO only treatment (minimum inhibition) as well as fourteen control wells for maximum inhibition treated with 20 μM of a reference compound. The average of the ratio values for each control type was calculated and used to determine the percent […] for each test well in the plate. Reference compound was serially diluted three-fold in DMSO for a total of nine test concentrations, beginning at 20 μM.
Percent inhibition was determined and IC50 curves were generated using triplicate wells per concentration of compound.

T1 sequence (Q86X55 other isoform, or with tags, fused parts or gaps): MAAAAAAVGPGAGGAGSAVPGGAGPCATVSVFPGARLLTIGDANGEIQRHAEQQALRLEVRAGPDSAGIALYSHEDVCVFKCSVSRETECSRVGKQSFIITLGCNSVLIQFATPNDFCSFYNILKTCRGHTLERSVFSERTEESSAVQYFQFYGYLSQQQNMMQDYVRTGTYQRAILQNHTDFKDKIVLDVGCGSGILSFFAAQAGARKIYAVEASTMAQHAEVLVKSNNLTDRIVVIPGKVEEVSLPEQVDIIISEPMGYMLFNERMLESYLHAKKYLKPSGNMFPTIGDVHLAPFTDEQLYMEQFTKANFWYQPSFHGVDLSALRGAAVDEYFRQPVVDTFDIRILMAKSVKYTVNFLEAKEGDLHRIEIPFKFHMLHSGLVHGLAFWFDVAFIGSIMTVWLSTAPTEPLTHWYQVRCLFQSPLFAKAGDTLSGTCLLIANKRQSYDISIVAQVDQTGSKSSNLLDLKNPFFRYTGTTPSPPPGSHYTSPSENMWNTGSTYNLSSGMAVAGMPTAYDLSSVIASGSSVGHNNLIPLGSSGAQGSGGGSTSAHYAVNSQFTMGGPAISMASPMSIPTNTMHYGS

One may read the IC50 as the concentration that inhibits the measured activity by half. In the case of `CNCC(O)COc1cccc(-c2cc(N(C)C3CCOCC3)nc(N3CCOCC3)n2)c1` (centres unmarked) [Example 4-9], the results for the IC50 (on Human CARM1 (PRMT4); in experiment [1] (Homo sapiens)) were less than 0.1 µM and more than 20 µM, respectively.
The like results for `CNCC(O)COc1cccc(-c2cc(NC3CCOCC3)c3c(C#N)nn(C(C)C)c3n2)c1` (centres unmarked) [Example 5-2] were, in that order, 0.1 to 1 µM and more than 20 µM.
The like results for `COc1cc(OCC(O)CN)cc(-c2cc(N3CCOCC3)c3cnn(C(C)C)c3n2)c1` (centres unmarked) [Example 5-4] were, in that order, less than 0.1 µM and 10 to 20 µM.
The like results for `CNCC(O)COc1cccc(-c2nc(N3[C@@H]4CC[C@H]3COC4)c3cnn(C4CC4)c3n2)c1` (some centres unmarked) [Example 5-5] were, in that order, 0.1 to 1 µM and more than 20 µM.
As to `CNCC(O)COc1cc(OC)cc(-c2cc(C)n3ncc(C(C)C)c3n2)c1` (centres unmarked) [Example 5-6], the values for the IC50 (on Human CARM1 (PRMT4); in experiment [1] (Homo sapiens)) were less than 0.1 µM and more than 20 µM, respectively.
The like results for `CC(C)n1ncc2c(N[C@@H]3CO[C@H]4OCC[C@H]43)cc(-c3cccc(OCC(O)CN)c3)nc21` (some centres unmarked) [Example 5-8] were, in that order, less than 0.1 µM and more than 20 µM.
The like results for `CNCC(O)COc1cc(OC)cc(-c2cc(-c3cnc4[nH]ccc4c3)c3cnn(C(C)C)c3n2)c1` (centres unmarked) [Example 5-9] were, in that order, less than 0.1 µM and more than 20 µM.
Regarding `CNCC(O)COc1cccc(-c2cc(N(C)C3CCOCC3)c3c(C)nn(C(C)C)c3n2)c1` (centres unmarked) [Example 6-2], the IC50 on Human CARM1 (PRMT4) is less than 0.1 µM; in experiment [1] (Homo sapiens), 10 to 20 µM.
The like results for `CNCC(O)COc1cc(O)cc(-c2cc(N3CCOCC3)c3cnn(C(C)C)c3n2)c1` (centres unmarked) [Example 6-4] were, in that order, less than 0.1 µM and more than 20 µM.
The like results for `CC(C)n1ncc2c(N3CCOCC3)nc(-c3cccc(OCC(O)CN)c3)nc21` (centres unmarked) [Example 6-5] were, in that order, less than 0.1 µM and more than 20 µM.
For the compound `CC(C)n1ncc2c(N[C@@H]3CO[C@H]4OCC[C@H]43)cc(-c3cccc(OCC(O)CN)c3)nc21` (some centres unmarked) [Example 6-8], the IC50 at Human CARM1 (PRMT4) was less than 0.1 µM; in experiment [1], more than 20 µM.
`CNCC(O)COc1cccc(-c2cc(NCc3c(C)cc(C)nc3OC)c3cnn(C(C)C)c3n2)c1` (centres unmarked) [Example 6-9]: the 50% inhibitory concentration (IC50) on Human CARM1 (PRMT4) was less than 0.1 µM; in experiment [1] (Homo sapiens), more than 20 µM.
The like results for `CNCC(O)COc1cc(N)cc(-c2cc(NC3CCOCC3)c3cnn(C(C)C)c3n2)c1` (centres unmarked) [Example 7-4] were, in that order, less than 0.1 µM and more than 20 µM.
The like results for `CC(C)n1ncc2c(NC3CCOC3)nc(-c3cccc(OCC(O)CN)c3)nc21` (centres unmarked) [Example 7-5] were, in that order, less than 0.1 µM and more than 20 µM.
The like results for `CNCC(O)COc1cccc(-c2cc(N3CCOCC3)n3ncc(C(C)C)c3n2)c1` (centres unmarked) [Example 7-6] were, in that order, 0.1 to 1 µM and more than 20 µM.
Turning to `CC(C)n1ncc2c(N3CCOCC3)cc(-c3cc(F)cc(OCC(O)CN)c3)nc21` (centres unmarked) [Example 7-8], the IC50 was less than 0.1 µM at Human CARM1 (PRMT4) and more than 20 µM in experiment [1] (Homo sapiens).
The like results for `CNCC(O)COc1cccc(-c2nc(N3CC4CCC(C3)O4)c3cnn(C4CC4)c3n2)c1` (centres unmarked) [Example 7-9] were, in that order, less than 0.1 µM and 10 to 20 µM.
The like results for `CNCC(O)COc1cc(OC)cc(-c2cc(N3CCOCC3)c3cnn(C(C)C)c3n2)c1` (centres unmarked) [Example 8-4] were, in that order, less than 0.1 µM and 10 to 20 µM.
The like results for `CNCC(O)COc1cccc(-c2nc(N3CCOCC3)c3cnn(C(C)C)c3n2)c1` (centres unmarked) [Example 8-5] were, in that order, less than 0.1 µM and 10 to 20 µM.
As to `CNC[C@@H](O)COc1cccc(-c2cc(N3CCOCC3)n3ncc(C(C)C)c3n2)c1` [Example 8-6], the IC50 on Human CARM1 (PRMT4) is less than 0.1 µM; in experiment [1] (Homo sapiens) it was more than 20 µM.
The like results for `CNCC(O)COc1cccc(-c2nc(NCc3cnn(C)c3)c3cnn(C(C)(C)C)c3n2)c1` (centres unmarked) [Example 8-8] were, in that order, less than 0.1 µM and more than 20 µM.
Take `CNCC(O)COc1cccc(-c2nc(NCc3nccs3)c3cnn(C4CC4)c3n2)c1` (centres unmarked) [Example 8-9]: the IC50 fell in the range of 0.1 to 1 µM on Human CARM1 (PRMT4) and 10 to 20 µM in experiment [1] (Homo sapiens).
The like results for `CNCC(O)COc1cc(Cl)cc(-c2cc(NC3CCOC3)c3cnn(C(C)C)c3n2)c1` (centres unmarked) [Example 9-4] were, in that order, less than 0.1 µM and more than 20 µM.
In the case of `CC(C)(C)n1ncc2c(N3CCOCC3)nc(-c3cccc(OCC(O)CN)c3)nc21` (centres unmarked) [Example 9-5], the IC50 at Human CARM1 (PRMT4) was less than 0.1 µM; in experiment [1] (Homo sapiens), more than 20 µM.
The like results for `CNC[C@H](O)COc1cccc(-c2cc(N3CCOCC3)n3ncc(C(C)C)c3n2)c1` [Example 9-6] were, in that order, less than 0.1 µM and more than 20 µM.
The like results for `CC(C)c1cnn2c(N3CCOCC3)cc(-c3cccc(OC[C@@H](O)CN)c3)nc12` [Example 9-8] were, in that order, less than 0.1 µM and more than 20 µM.
The like results for `CNCC(O)COc1cc(Cl)cc(-c2cc(N(C)C3CCOCC3)n3ncc(C(C)(C)C)c3n2)c1` (centres unmarked) [Example 9-9] were, in that order, 0.1 to 1 µM and more than 20 µM.
On to `CNCC(O)COc1cc(OC)cc(-c2cc(Nc3cncnc3)c3cnn(C(C)C)c3n2)c1` (centres unmarked) [Example 10-4], for which the IC50 at Human CARM1 (PRMT4) is less than 0.1 µM; in experiment [1] (Homo sapiens), more than 20 µM.
